From article PMC8460919, “Novel Angiotensin-I Converting Enzyme Inhibitory Peptides Isolated From Rice Wine Lees: Purification, Characterization, and Structure-Activity Relationship” (Frontiers in Nutrition, 2021) come the findings set out here.

Data set [1] deals with T1, Angiotensin-I converting enzyme (from rabbit lung) (Oryctolagus cuniculus, UniProt P12822).
T1 construct: Angiotensin-I converting enzyme (from rabbit lung); purchased Sigma Co., USA; host or cells: rabbit lung (tissue-derived)
T1 sequence (P12822 34-1310): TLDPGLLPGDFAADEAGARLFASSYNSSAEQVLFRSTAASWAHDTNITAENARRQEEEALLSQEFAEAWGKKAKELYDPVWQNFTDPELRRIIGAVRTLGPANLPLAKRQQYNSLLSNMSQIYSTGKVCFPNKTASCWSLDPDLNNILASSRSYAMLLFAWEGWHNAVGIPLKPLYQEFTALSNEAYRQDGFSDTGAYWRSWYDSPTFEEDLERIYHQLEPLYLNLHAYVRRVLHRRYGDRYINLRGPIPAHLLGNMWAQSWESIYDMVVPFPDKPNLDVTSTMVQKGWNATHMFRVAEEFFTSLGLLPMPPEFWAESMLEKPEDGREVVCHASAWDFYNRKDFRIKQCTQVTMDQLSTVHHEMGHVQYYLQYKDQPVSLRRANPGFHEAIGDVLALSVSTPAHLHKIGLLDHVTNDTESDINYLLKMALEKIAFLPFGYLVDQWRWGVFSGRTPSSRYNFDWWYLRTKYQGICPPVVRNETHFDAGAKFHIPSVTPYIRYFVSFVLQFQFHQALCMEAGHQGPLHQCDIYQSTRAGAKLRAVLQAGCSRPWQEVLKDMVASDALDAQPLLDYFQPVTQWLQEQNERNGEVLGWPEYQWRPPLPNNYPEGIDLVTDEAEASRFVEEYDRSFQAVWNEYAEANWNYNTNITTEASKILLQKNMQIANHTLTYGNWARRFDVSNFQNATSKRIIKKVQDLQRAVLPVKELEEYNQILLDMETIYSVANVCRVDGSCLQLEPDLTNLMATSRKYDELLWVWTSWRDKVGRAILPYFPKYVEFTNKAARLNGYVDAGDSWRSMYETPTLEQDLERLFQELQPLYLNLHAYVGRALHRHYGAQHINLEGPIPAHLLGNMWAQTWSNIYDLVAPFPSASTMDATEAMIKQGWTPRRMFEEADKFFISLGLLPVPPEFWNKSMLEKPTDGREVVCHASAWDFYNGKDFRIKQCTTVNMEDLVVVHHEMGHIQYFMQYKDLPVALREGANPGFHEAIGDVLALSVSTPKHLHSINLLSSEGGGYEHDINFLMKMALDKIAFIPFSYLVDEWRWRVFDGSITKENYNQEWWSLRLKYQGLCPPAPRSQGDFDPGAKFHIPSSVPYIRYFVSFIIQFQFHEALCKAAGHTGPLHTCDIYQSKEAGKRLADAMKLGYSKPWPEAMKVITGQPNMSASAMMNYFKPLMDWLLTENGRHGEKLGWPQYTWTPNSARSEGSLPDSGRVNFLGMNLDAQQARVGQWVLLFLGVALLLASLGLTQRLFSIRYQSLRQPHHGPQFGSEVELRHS
In words: ACE inhibitory activity (HHL substrate, hippuric acid by HPLC). The class given is biochemical. As to conditions: for inhibition at 1000 µg/mL: concentration 1 mg/ml. How it is done: (§1) Rice wine lees was obtained from Guangdong Shunde Winery Co., Ltd., Shunde, China. Angiotensin-I converting enzyme (from rabbit lung) and N-Hippuryl-His-Leu hydrate (HHL) were purchased from Sigma Co., USA. Other chemicals and reagents were of analytical grade.
Angiotensin-I converting enzyme inhibitory activity was measured using the method described in Wu et al. ([29]) with some modifications. For each reaction, 10 μl of 0.25 U/ ml ACE solution (prepared in 0.01 M potassium phosphate buffer containing 0.5 M NaCl, pH 7.0) was mixed with 10 μl of inhibitor solution and incubated for 5 min at 37°C. Subsequently, 30 μl of HHL solution (5 mM in 0.1 M sodium borate buffer containing 0.3 M NaCl, pH 8.3) was added, followed by incubation at 37°C for 1 h. The reaction was terminated with the addition of 70 μl 1 M HCl before subsequent assays were performed. For the control group, 10 μl ACE solution and 80 μl 1 M HCl were simultaneously added to the mixture. A blank sample was prepared by replacing the inhibitor solution with 10 μl borate buffer. […] Angiotensin-I converting enzyme activity (%) was calculated according to the following equation:
ACE inhibition(%) = (A1-A2)-B/(A1-A2)×100%
Where A1, A2, and B are peak areas corresponding to Hippuric Acid in the control group, the blank and the sample, respectively.

The target in data set [2] is T2, ACE (Oryctolagus cuniculus, UniProt P12822).
T2 construct: Angiotensin-I converting enzyme (from rabbit lung); purchased Sigma Co., USA; host or cells: rabbit lung (tissue-derived)
T2 sequence (P12822 34-1310): T1 sequence (P12822 34-1310)
In words: Kinetic parameters of ACE inhibition (Lineweaver-Burk plots). The class given is biochemical, rabbit. As to conditions: for type of ACE inhibition: Lineweaver-Burk plots, peptides at 0.05 or 0.1 mg/ml. Here is the method:
Angiotensin-I converting enzyme inhibition of purified peptides was determined using Lineweaver–Burk plots according to reported methods ([32]). Samples were added at two fixed concentrations to each reaction mixture, and enzyme activity was measured for different concentrations of the substrate HHL according to the ACE inhibition assay. The curves were described by 1/area and 1/[S], and the kinetics of ACE inhibitors were estimated by comparing the resulting curves.
To clarify the kinetics of inhibition, Lineweaver–Burk plots were generated. Various concentrations of substrate were incubated with ACE solution in the absence or presence of RWLE peptides at 0.05 or 0.1 mg/ml.

For data set [3], the target named is T2, ACE. Description: Stability of peptides against ACE (pre-incubation with ACE, then ACEi assay). As to conditions: for category of ACEi peptide from ACE pre-incubation test: true inhibitor / real substrate / pro-drug type. The class given is in vitro ADME, rabbit. How it is done: as §1
The stability of peptides against ACE was assayed according to the methods of Deng ([31]), with some modifications. For each reaction, 30 μl of peptides (2 mg/ml) was combined with 30 μl 0.25 U/ml ACE solution and incubated at 37°C for 30 min. Angiotensin-I converting enzyme was then inactivated by boiling the solution for 10 min. As described in section Measurement of ACEi Activity, 20 μl of each peptide sample was used for the detection of ACEi activity.

In data set [4] the test system is pepsin, chymotrypsin. In words: Stability of peptides during in vitro digestion by gastrointestinal enzymes (ACEi activity after digestion). The data set is classed as in vitro ADME. As to conditions: in vitro digestion by pepsin and chymotrypsin. How it is done: Peptide stability was measured according to the methods described in Chen et al. ([30]) with some modifications. For this assay, 2% (w/w) pepsin was dissolved in a KCl–HCl buffer (0.1 mM) adjusted to pH 2.0, and 2% (w/w) chymotrypsin was dissolved in a KCl–NaOH (0.1 mM) buffer adjusted to pH 7.0. Peptides were dissolved at 1 mg/ml in pepsin or chymotrypsin solutions and incubated at 37°C for 4 h. Reactions were terminated by boiling for 15 min. After centrifugation at 4,000 rpm for 15 min, the supernatant was collected, pH was adjusted to 8.0, and samples were assayed for ACEi activity. The supernatant was also analyzed using the previously described RP-HPLC conditions to evaluate changes to the peptides after in vitro digestion.
Control groups were prepared by incubating inactivated pepsin and/or chymotrypsin (boiled for 15 min) with the sample peptides. After incubation, the mixture was processed and analyzed as described.

Where [5] appears, read: peptide concentration 0.05 mg/ml.
Setting [6] is: peptide concentration 0.1 mg/ml.

The structures appear in SMILES notation. Like-named read-outs stand apart in the source and are kept apart here. Residues, ends and D or L forms follow the SMILES beside them.

The IC50 is the midpoint of a concentration-inhibition curve. On to `CC[C@H](C)[C@H](N)C(=O)N[C@H](C(=O)N1CCC[C@H]1C(=O)N[C@@H](CCC(N)=O)C(=O)N[C@@H](Cc1c[nH]cn1)C(=O)O)[C@@H](C)CC` [IIPQH] (H-IIPQH-OH; N-terminus and C-terminus assumed), for which the IC50 in data set [1] (synthetic peptides) is 1780 µM.

`CC[C@H](C)[C@H](NC(=O)[C@@H](N)CC(C)C)C(=O)N[C@H](C(=O)N1CCC[C@H]1C(=O)N[C@@H](CCC(N)=O)C(=O)N[C@@H](Cc1c[nH]cn1)C(=O)N[C@@H](Cc1ccc(O)cc1)C(=O)O)[C@@H](C)CC` [LIIPQHY] (H-LIIPQHY-OH; N-terminus and C-terminus assumed): half-maximal inhibition in data set [1] (synthetic peptides) (IC50) was put at 1230 µM.

Consider `CC[C@H](C)[C@H](NC(=O)[C@H](CC(C)C)NC(=O)[C@@H](N)CC(C)C)C(=O)N[C@H](C(=O)N1CCC[C@H]1C(=O)N[C@@H](CCC(N)=O)C(=O)N[C@@H](Cc1c[nH]cn1)C(=O)O)[C@@H](C)CC` [LLIIPQH] (H-LLIIPQH-OH; N-terminus and C-terminus assumed), for which the midpoint of inhibition in data set [1] (synthetic peptides), the IC50, lay at 995 µM.

Consider `CC[C@H](C)[C@H](NC(=O)[C@@H](N)CC(C)C)C(=O)N[C@H](C(=O)N1CCC[C@H]1C(=O)O)[C@@H](C)CC` [LIIP] (H-LIIP-OH; N-terminus and C-terminus assumed), for which, in data set [1] (synthetic peptides), half-maximal inhibition (IC50) required 2040 µM.

A word on the inhibition: it is the percentage by which the read-out fell short of the control. Consider `CC[C@H](C)[C@H](NC(=O)[C@@H](N)CC(C)C)C(=O)N[C@H](C(=O)N1CCC[C@H]1C(=O)N[C@@H](CCC(=O)O)C(=O)N[C@@H](Cc1c[nH]cn1)C(=O)O)[C@@H](C)CC` [H6, LIIPEH] (H-LIIPEH-OH; N-terminus and C-terminus assumed), for which the “type of ACE inhibition” value in data set [2] is given as “non-competitive inhibitors (mostly mixed-type)”; in data set [2] (listed as LIIPEH) it was “mixed-type ACE inhibitors”. Besides, the figures for the Vm in data set [2] (setting [5]) and in data set [2] (setting [6]) were 0.099 ΔA/min and 0.049 ΔA/min, respectively. The inhibition at 1000 µg/mL in data set [1] came out at 91.7%. Also, the IC50 in data set [1] (products of each purification step (natural, from RWLE)) was 83.9 µM; in data set [1] (synthetic peptides), 78.6 µM; in data set [3] (control (co-incubation with inactive ACE), read-out: IC50 without pre-incubation (converted)), 51.3 µM; in data set [3] (pre-incubation with ACE, 37°C 30 min, read-out: IC50 with pre-incubation (converted)), 70.7 µM. The “stability against ACE” value in data set [3] is listed as “stable”. The “category of ACEi peptide from ACE pre-incubation test” value in data set [3] is listed as “pro-drug ACE-inhibitors”. For the same compound, the “stability against gastrointestinal enzymes” value in data set [4] is listed as “stable within the gastrointestinal environment”; in data set [4] (listed as LIIPEH), “stable”.

The compound `CC[C@H](C)[C@H](NC(=O)[C@@H](N)CC(C)C)C(=O)N[C@H](C(=O)N1CCC[C@H]1C(=O)N[C@@H](CCC(N)=O)C(=O)O)[C@@H](C)CC` [LIIPQ] (H-LIIPQ-OH; N-terminus and C-terminus assumed) had an IC50 in data set [1] (synthetic peptides) of 2390 µM.

In data set [1] (synthetic peptides), `CC[C@H](C)[C@H](NC(=O)[C@@H](N)CC(C)C)C(=O)N[C@H](C(=O)N1CCC[C@H]1C(=O)N[C@@H](CCC(N)=O)C(=O)N[C@@H](Cc1c[nH]cn1)C(=O)N[C@@H](Cc1c[nH]cn1)C(=O)O)[C@@H](C)CC` [LIIPQHH] (H-LIIPQHH-OH; N-terminus and C-terminus assumed) showed an IC50 of 1410 µM.

With `CC[C@H](C)[C@H](NC(=O)[C@@H](N)CC(C)C)C(=O)N[C@H](C(=O)N1CCC[C@H]1C(=O)N[C@@H](CCC(N)=O)C(=O)N[C@@H](Cc1c[nH]cn1)C(=O)O)[C@@H](C)CC` [H5, LIIPQH] (H-LIIPQH-OH; N-terminus and C-terminus assumed), the results for the “type of ACE inhibition” value in data set [2] and in data set [2] (listed as LIIPQH) were “non-competitive inhibitors (mostly mixed-type)” and “mixed-type ACE inhibitors”, respectively. Besides, the Vm is reported as 0.120 ΔA/min in data set [2] (setting [5]) and 0.070 ΔA/min in data set [2] (setting [6]). Besides, the inhibition at 1000 µg/mL in data set [1] is 89.3%. Further, the “stability against ACE” value in data set [3] was “stable”. In addition, the “category of ACEi peptide from ACE pre-incubation test” value in data set [3] was “pro-drug ACE-inhibitors”. Moreover, the “stability against gastrointestinal enzymes” value in data set [4] is listed as “stable within the gastrointestinal environment”; in data set [4] (listed as LIIPQH), “stable”.
